Assay results as given in ChEMBL document CHEMBL1129767, “Synthesis and properties of 25 and 35 linked -oligoriboadenylates” (Bioorg Med Chem Lett, 1996).

What was measured:
Format in all cases: ADME
[1] = Biological half life period of compound was measured against nuclease P1.
[2] = Biological half life period of compound was measured against snake venom phosphodiesterase (SVPDE); conditions: serpentes
[3] = Biological half life period of compound was measured against RNaseT2.; conditions: RNase T2
[4] = Biological half life period of compound was measured against nuclease P1;NC: Not cleaved
[5] = Biological half life period of compound was measured against RNaseT2; N C: Not cleaved
[6] = Biological half life period of compound was measured against RNaseT2; NC: Not cleaved

SMILES | half-life [1] [min] | half-life [2] [min] | half-life [3] [min] | T1/2 [4] | T1/2 [5] | T1/2 [6]
Nc1ncnc2c1ncn2C1O[C@H](COP(=O)(O)O[C@H]2[C@@H](O)[C@H](n3cnc4c(N)ncnc43)O[C@@H]2CO)[C@@H](O)[C@H]1O (some centres not stated) | 7.8 | 3.6 | 12.6 |  |  | 
Nc1ncnc2c1ncn2C1O[C@H](COP(=O)(O)O[C@@H]2[C@H](O)[C@@H](CO)O[C@H]2n2cnc3c(N)ncnc32)[C@@H](O)[C@H]1O (some centres not stated) |  | 3.6 |  | Not cleaved | Not cleaved | 
Nc1ncnc2c1ncn2C1OC(COP(=O)(O)O[C@@H]2C(CO)O[C@H](n3cnc4c(N)ncnc43)[C@@H]2O)[C@@H](O)[C@H]1O (single isomer, unassigned) | 120 | 31.8 |  |  | Not cleaved | 
Nc1ncnc2c1ncn2C1OC(COP(=O)(O)O[C@@H]2[C@H](O)[C@@H](CO)O[C@@H]2n2cnc3c(N)ncnc32)[C@@H](O)[C@H]1O (single isomer, unassigned) |  | 18 |  | Not cleaved |  | Not cleaved
